The results in this text go back to ChEMBL document CHEMBL1201862, “PubChem BioAssay data set” (2004).

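Compound exposure: 48 hours, 5 concentrations, 96-well plates. Here, GI50 denotes the concentration required for 50% inhibition of growth.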 Active and inactive are the calls of the source. Rule as the data show it: active = GI50 up to about 1.1 µM and inactive = higher.

Among the test systems are 786-0; A498; A549; CCRF-CEM; COLO 205; EKVX; HCC 2998; HL-60; HOP-62; M14; Malme-3M; OVCAR-8; SK-MEL-2; SNB-75; SW-620; TK-10; UO-31.
Assay in all cases: inhibition of tumour cell growth, NCI panel, 48 h

With `CNC(=O)OCc1nc(SSc2nc(COC(=O)NC)c(COC(=O)NC)n2C)n(C)c1COC(=O)NC`, the GI50 in the assay with 786-0, in the assay on A498, in the assay with A549, in the assay on CCRF-CEM, with COLO 205 and in the assay with EKVX was > 100 µM (inactive) each time. The GI50 in the assay with HCC 2998, in the assay on HL-60, in the assay with HOP-62, with M14, in the assay on Malme-3M and with OVCAR-8 was > 100 µM (inactive) in each case. Moreover, the GI50 in the assay with SK-MEL-2, in the assay on SNB-75, in the assay with SW-620, in the assay on TK-10 and with UO-31 was > 100 µM (inactive) in each case.

Consider `C/C(=N\NC(N)=S)c1ccc2c(c1)OCO2`, for which the GI50 in the assay with 786-0 is > 100 µM (inactive); in the assay on A498, > 100 µM (inactive); with A549, > 100 µM (inactive); with CCRF-CEM, 56.8 µM (inactive); in the assay on COLO 205, > 100 µM (inactive); in the assay on EKVX, 13.9 µM (inactive). In addition, the GI50 was > 100 µM (inactive) in the assay with HCC 2998; 21.2 µM (inactive) in the assay on HL-60; > 100 µM (inactive) in the assay with HOP-62; > 100 µM (inactive) with M14; > 100 µM (inactive) in the assay on Malme-3M; > 100 µM (inactive) in the assay on OVCAR-8. Besides, the GI50 in the assay on SK-MEL-2 was > 100 µM (inactive); in the assay on SNB-75, > 100 µM (inactive); in the assay on SW-620 it was > 100 µM (inactive); in the assay on TK-10, > 100 µM (inactive); in the assay with UO-31, 76.2 µM (inactive).

In the case of `O=C(c1c(O)cc(O)cc1O)C1Cc2ccccc21` (stereo unspecified), the GI50 with 786-0 was 31.8 µM (inactive); in the assay with A498, > 100 µM (inactive); in the assay with A549, 91.6 µM (inactive); in the assay with CCRF-CEM, > 100 µM (inactive); with COLO 205, > 100 µM (inactive); in the assay on HCC 2998, > 100 µM (inactive). Also, the GI50 in the assay on HL-60 is 74 µM (inactive); in the assay with HOP-62, 45.2 µM (inactive); in the assay with M14, > 100 µM (inactive); with Malme-3M, > 100 µM (inactive); in the assay on OVCAR-8, 39.2 µM (inactive); in the assay on SK-MEL-2, > 100 µM (inactive). The GI50 in the assay on SNB-75 is 13.4 µM (inactive); in the assay with SW-620, > 100 µM (inactive); in the assay with TK-10, > 100 µM (inactive); in the assay with UO-31 it was 58.3 µM (inactive).

For `CSc1c(C)c(C)nn1-c1ccccc1`, the GI50 in the assay on 786-0, in the assay on A498, with A549, with CCRF-CEM, in the assay on COLO 205 and in the assay with EKVX was > 100 µM (inactive) throughout. Further, the GI50 in the assay on HCC 2998 was > 100 µM (inactive); in the assay with HL-60 it was 81.1 µM (inactive); in the assay on M14, > 100 µM (inactive); in the assay with Malme-3M, > 100 µM (inactive); in the assay on OVCAR-8, > 100 µM (inactive); in the assay on SK-MEL-2 it was > 100 µM (inactive). For the same compound, the GI50 in the assay with SNB-75 is 58.2 µM (inactive); in the assay on SW-620, > 100 µM (inactive); with TK-10 it was > 100 µM (inactive); in the assay with UO-31, > 100 µM (inactive).

As for `O=C(Cc1nc2ccccc2s1)Nc1ccc(Cl)cc1`, the GI50 in the assay on 786-0 is > 100 µM (inactive); with A498, > 100 µM (inactive); with A549, 97.9 µM (inactive); in the assay on CCRF-CEM, > 100 µM (inactive); with COLO 205, > 100 µM (inactive); with EKVX, > 100 µM (inactive). Further, the GI50 with HCC 2998 is > 100 µM (inactive); in the assay on HL-60 it was > 100 µM (inactive); in the assay with HOP-62 it was > 100 µM (inactive); in the assay on M14 it was 77.1 µM (inactive); with Malme-3M, > 100 µM (inactive); in the assay with OVCAR-8, > 100 µM (inactive). Also, the GI50 in the assay with SK-MEL-2 is 88.9 µM (inactive); in the assay with SNB-75, 91.6 µM (inactive); in the assay on SW-620 it was > 100 µM (inactive); with TK-10, > 100 µM (inactive); with UO-31 it was > 100 µM (inactive).

As for `CC(C)(C)OC1=C(OC(C)(C)C)C(O)(c2ccccc2)C1=O` (stereo unspecified), the GI50 in the assay with 786-0, in the assay on A498, in the assay on A549, in the assay on CCRF-CEM, with COLO 205 and with EKVX was > 100 µM (inactive) throughout. Moreover, the GI50 in the assay with HCC 2998, with HL-60, with M14, in the assay with Malme-3M, in the assay with OVCAR-8 and with SNB-75 was > 100 µM (inactive) throughout. The GI50 in the assay on SW-620, with TK-10 and with UO-31 was > 100 µM (inactive) in each case.

Take `CCN(CC)CCCC(C)Nc1c(Sc2cnc3cc(Cl)ccc3c2NC(C)CCCN(CC)CC)cnc2cc(Cl)ccc12` (stereo unspecified): the GI50 in the assay with 786-0 is 1.54 µM (inactive); in the assay with A498 it was 1.85 µM (inactive); with A549 it was 1.68 µM (inactive); in the assay with CCRF-CEM, 2.2 µM (inactive); in the assay with COLO 205, 1.46 µM (inactive); with HCC 2998, 0.269 µM (active). Further, the GI50 in the assay with HL-60 is 1.82 µM (inactive); with M14, 1.81 µM (inactive); with Malme-3M, 2.13 µM (inactive); in the assay on OVCAR-8 it was 1.69 µM (inactive); in the assay with SK-MEL-2, 1.85 µM (inactive); with SNB-75 it was 1.51 µM (inactive). The GI50 in the assay on SW-620 is 1.58 µM (inactive); with TK-10, 1.79 µM (inactive); with UO-31, 21.1 µM (inactive).

As to `CC1=CC=NN2C(=O)[C@H](C)C2C1` (stereo partly specified), the GI50 with 786-0, in the assay with A498, in the assay with A549, in the assay on CCRF-CEM, in the assay on COLO 205 and in the assay with EKVX was > 100 µM (inactive) throughout. Moreover, the GI50 with HCC 2998, with HL-60, with HOP-62, with M14, with Malme-3M and in the assay with OVCAR-8 was > 100 µM (inactive) in each case. The GI50 in the assay on SK-MEL-2, in the assay with SNB-75, with SW-620, in the assay on TK-10 and in the assay on UO-31 was > 100 µM (inactive) in each case.

`N#COc1ccc(Oc2ccccc2)cc1`: the GI50 in the assay with 786-0 was 34.6 µM (inactive); in the assay with A498, > 100 µM (inactive); with A549 it was 73.3 µM (inactive); with CCRF-CEM, 24.5 µM (inactive); in the assay on COLO 205, 64 µM (inactive); in the assay with EKVX it was > 100 µM (inactive). Besides, the GI50 in the assay on HCC 2998 was 55.5 µM (inactive); in the assay with HL-60 it was 26.3 µM (inactive); in the assay on HOP-62, 55.7 µM (inactive); in the assay on M14, 58.7 µM (inactive); in the assay with Malme-3M it was > 100 µM (inactive); with OVCAR-8, 49.5 µM (inactive). Moreover, the GI50 is 74.3 µM (inactive) in the assay on SK-MEL-2, 39.8 µM (inactive) in the assay on SNB-75, > 100 µM (inactive) in the assay on TK-10 and 50.9 µM (inactive) in the assay on UO-31.

Take `CC(=O)OC1(C#N)CC2OC1C1C2N1C(=O)OC(C)(C)C` (stereo unspecified): the GI50 in the assay on 786-0, in the assay with A498, with A549, with CCRF-CEM, with COLO 205 and in the assay on EKVX was > 100 µM (inactive) throughout. Besides, the GI50 in the assay on HCC 2998, with HL-60, in the assay with HOP-62, with M14, with Malme-3M and in the assay on OVCAR-8 was > 100 µM (inactive) in each case. Besides, the GI50 in the assay with SK-MEL-2, in the assay on SNB-75, with SW-620, in the assay on TK-10 and with UO-31 was > 100 µM (inactive) each time.

As to `N#CC1CC2(CCN1C(=O)c1ccccc1)OCCO2` (stereo unspecified), the GI50 with 786-0, with A498, with A549, in the assay with CCRF-CEM, with COLO 205 and with EKVX was > 100 µM (inactive) in each case. Moreover, the GI50 with HCC 2998, with HL-60, with HOP-62, in the assay on M14, in the assay on Malme-3M and with OVCAR-8 was > 100 µM (inactive) each time. In addition, the GI50 in the assay on SK-MEL-2, in the assay on SNB-75, in the assay on SW-620, with TK-10 and in the assay with UO-31 was > 100 µM (inactive) throughout.

Turning to `COc1ccc2c3c1C(=O)CCCC3CO2` (stereo unspecified), the GI50 in the assay on 786-0, with A498, with A549, with CCRF-CEM, with COLO 205 and in the assay with HCC 2998 was > 100 µM (inactive) throughout. Moreover, the GI50 in the assay on HL-60, in the assay with HOP-62, in the assay on M14, in the assay on Malme-3M, in the assay with OVCAR-8 and in the assay on SK-MEL-2 was > 100 µM (inactive) throughout. Besides, the GI50 with SNB-75, with SW-620, in the assay on TK-10 and in the assay on UO-31 was > 100 µM (inactive) throughout.
